The source made the active and inactive calls. A value given as a limit tells only on which side of the number the result lay.

Test [1] can be described thus: Luminescence Cell-Based Dose Confirmation HTS to Identify Activators of 5'UTR Stem-Loop Driven Alpha-Synuclein mRNA Translation in H4 Neuroglioblastoma Cells. [Related pubchem assays: 1829 (Project Summary), 1814 (Primary HTS)]. The test is classed as functional.
A short description of test [2]: Luminescence Cell-Based Dose Response HTS to Identify Activators of Luciferase Translation or Activity in H4 […] Cells. [Related pubchem assays: 1829 (Project Summary), 1814 (Primary HTS)]. The format is functional.
The test system of another test is H4. Nature of the test: Luminescence Cell-Based Dose Response HTS to Identify Activators of 5'UTR Stem-Loop Driven Prion Protein mRNA Translation in H4 Neuroglioblastoma Cells. [Related pubchem assays: 1829 (Project Summary), 1814 (Primary HTS)]. The note with it: Homo sapiens. The test is classed as functional.
In test [3] the target is T1, Replicative DNA helicase DnaB (Mycobacterium tuberculosis, UniProt P9WMR3).
T1 sequence (P9WMR3 whole entry): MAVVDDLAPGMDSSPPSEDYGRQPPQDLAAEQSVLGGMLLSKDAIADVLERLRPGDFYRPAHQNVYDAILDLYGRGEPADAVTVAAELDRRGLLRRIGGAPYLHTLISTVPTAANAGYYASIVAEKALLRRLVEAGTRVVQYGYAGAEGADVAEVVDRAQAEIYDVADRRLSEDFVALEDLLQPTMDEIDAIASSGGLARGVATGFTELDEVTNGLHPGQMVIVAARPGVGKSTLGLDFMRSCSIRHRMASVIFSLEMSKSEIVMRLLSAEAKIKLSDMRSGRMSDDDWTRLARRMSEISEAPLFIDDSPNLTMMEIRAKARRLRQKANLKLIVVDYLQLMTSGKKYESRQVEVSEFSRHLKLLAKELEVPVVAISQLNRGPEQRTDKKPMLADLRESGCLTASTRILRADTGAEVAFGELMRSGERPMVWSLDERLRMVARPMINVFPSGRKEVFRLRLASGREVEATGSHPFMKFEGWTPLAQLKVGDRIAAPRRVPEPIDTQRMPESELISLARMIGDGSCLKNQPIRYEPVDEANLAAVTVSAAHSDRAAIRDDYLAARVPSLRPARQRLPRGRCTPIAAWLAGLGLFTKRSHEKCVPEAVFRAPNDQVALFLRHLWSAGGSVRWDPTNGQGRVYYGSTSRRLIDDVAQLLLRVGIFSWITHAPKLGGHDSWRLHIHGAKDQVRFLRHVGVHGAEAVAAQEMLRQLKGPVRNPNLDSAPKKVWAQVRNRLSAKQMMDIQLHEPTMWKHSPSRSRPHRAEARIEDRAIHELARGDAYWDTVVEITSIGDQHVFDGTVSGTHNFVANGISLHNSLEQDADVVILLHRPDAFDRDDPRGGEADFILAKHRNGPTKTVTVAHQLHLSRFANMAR
Put plainly: DnaB intein splicing inhibitors, dose response, biochemical, cell-free fluorescence (AID 449749). The test is classed as functional.

Test [4] addresses Heat shock protein HSP 90-alpha (Homo sapiens, UniProt P07900). The test is classed as functional, organism-based.
In a further test the target is T2, Protein RecA (Mycobacterium tuberculosis, UniProt P9WHJ3).
T2 sequence (P9WHJ3 whole entry): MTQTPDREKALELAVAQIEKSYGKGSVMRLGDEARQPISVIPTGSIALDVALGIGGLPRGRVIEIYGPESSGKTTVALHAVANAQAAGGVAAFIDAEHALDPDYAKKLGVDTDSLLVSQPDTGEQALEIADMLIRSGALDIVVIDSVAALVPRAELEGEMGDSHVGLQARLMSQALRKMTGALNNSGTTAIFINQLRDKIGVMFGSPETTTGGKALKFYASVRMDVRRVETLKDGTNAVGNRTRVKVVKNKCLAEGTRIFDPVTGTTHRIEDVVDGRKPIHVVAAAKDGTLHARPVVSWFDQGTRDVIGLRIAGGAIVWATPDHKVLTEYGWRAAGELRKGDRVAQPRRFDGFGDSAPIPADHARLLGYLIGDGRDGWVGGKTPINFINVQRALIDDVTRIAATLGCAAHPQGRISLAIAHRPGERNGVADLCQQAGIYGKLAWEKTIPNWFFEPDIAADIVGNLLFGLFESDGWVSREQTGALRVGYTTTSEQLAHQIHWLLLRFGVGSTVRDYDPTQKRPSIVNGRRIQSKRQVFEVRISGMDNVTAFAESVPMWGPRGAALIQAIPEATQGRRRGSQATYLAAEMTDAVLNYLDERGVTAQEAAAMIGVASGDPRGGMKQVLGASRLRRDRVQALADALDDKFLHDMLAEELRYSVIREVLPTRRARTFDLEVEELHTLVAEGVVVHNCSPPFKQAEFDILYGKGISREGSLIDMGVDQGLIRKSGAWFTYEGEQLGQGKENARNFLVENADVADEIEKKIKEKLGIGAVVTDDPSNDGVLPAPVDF
Put plainly: Fluorescence Cell-Free Homogeneous Dose Retest to Identify Inhibitors of RecA-Intein Splicing Activity. [Related pubchem assays (depositor defined):AID2097, AID2223, AID489010, AID492950]. The format is functional.

A short description of test [5]: Fluorescence-based cell-based high throughput dose response assay for inhibitors of the interaction of nucleotide-binding oligomerization domain containing 2 (NOD2) and the receptor-interacting serine-threonine kinase 2 (RIPK2). The note with it: Homo sapiens. The format is functional.
A short description of test [6]: reduced cellular PGC1a acetyl-lysine signal – cell-based, cherry-picked samples, dose response (AID 720514).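 Also: potency may reflect raised or lowered acetylation signal.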 The test is classed as functional.
Another test can be described thus: cells. The format is functional, cell-based.
The target in test [7] is T3, Nuclear receptor subfamily 0 group B member 1 (Homo sapiens, UniProt P51843).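 Also: HEK293T cells transfected with SF-1 and DAX-1 plus StAR promoter luciferase reporter.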
T3 sequence (P51843 whole entry): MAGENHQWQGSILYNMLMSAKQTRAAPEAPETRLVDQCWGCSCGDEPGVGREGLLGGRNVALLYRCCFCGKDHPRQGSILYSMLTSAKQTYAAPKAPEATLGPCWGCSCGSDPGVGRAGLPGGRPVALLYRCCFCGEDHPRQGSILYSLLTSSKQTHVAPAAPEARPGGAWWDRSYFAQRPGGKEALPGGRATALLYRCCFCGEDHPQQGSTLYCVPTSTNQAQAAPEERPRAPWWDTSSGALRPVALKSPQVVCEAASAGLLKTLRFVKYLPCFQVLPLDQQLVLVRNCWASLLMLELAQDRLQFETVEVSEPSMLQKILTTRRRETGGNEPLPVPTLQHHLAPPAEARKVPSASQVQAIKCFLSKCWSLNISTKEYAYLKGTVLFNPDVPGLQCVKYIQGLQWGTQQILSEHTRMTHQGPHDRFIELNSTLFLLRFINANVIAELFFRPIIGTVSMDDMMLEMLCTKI
The format is functional, cell-based.

Test [8] addresses Beta-lactamase (Salmonella choleraesuis (strain SC-B67), UniProt Q5J463). Nature of the test: Epi-absorbance-based counterscreen for selective VIM-2 inhibitors: dose response biochemical high throughput screening assay to identify inhibitors of TEM-1 serine-beta-lactamase.
The target in test [9] is T4, Beta-lactamase (Pseudomonas aeruginosa, UniProt Q79MP6). Put plainly: inhibition of IMP-1 beta-lactamase activity – biochemical, epi-absorbance, selectivity assay for VIM-2 inhibitor project, dose response (AID 1920).
The target in test [10] is T5, Beta Lactamase (Pseudomonas aeruginosa, UniProt Q932Y6). Put plainly: concentration-dependent VIM-2 enzyme inhibition – biochemical, epi-absorbance readout, selective inhibitors, dose response (AID 1919).
The target in test [11] is T4, Beta-lactamase. Nature of the test: […] counterscreen for selective VIM-2 inhibitors: dose response biochemical high throughput screening assay to identify inhibitors of IMP-1 metallo-beta-lactamase.
The target of test [12] is T5, Beta Lactamase. Put plainly: VIM-2 CCF2 hydrolysis inhibition, assay artifact filter – biochemical, FRET readout, CCF2 substrate, artefact control for selective VIM-2 inhibitor project, dose response (AID 1926).
The target in test [13] is DNA dC->dU-editing enzyme APOBEC-3A (Homo sapiens, UniProt P31941). Put plainly: A3A deaminase inhibition for selectivity – biochemical, dose response (AID 504722). The format is functional.
The target in test [14] is DNA dC->dU-editing enzyme APOBEC-3G (Homo sapiens, UniProt Q9HC16). Put plainly: Dose Response confirmation of small molecule APOBEC3G DNA Deaminase Inhibitors via a fluorescence-based single-stranded DNA deaminase assay. [Related pubchem assays (depositor defined):AID493012, AID493028]. The test is classed as functional.
The subject of another test is HEK293. Nature of the test: EBV LMP1 TES2 canonical NF-kB signalling blockers – cell-based, HEK293, luciferase, cherry-pick, dose response (AID 588343). The test is classed as functional. The note with it: Homo sapiens.
A further test relates to Vero. Put plainly: viability loss in Vero cells – cell-based, plate reader, cherry-pick samples, cytotoxicity control, dose response (AID 687020). As to conditions: Chlorocebus sabaeus. The format is functional.
Test [15] has as its target Potassium voltage-gated channel subfamily KQT member 2 (Rattus norvegicus, UniProt O88943). Put plainly: blockers of KCNQ2 channel current – cell-based, automated electrophysiology, set II, rat KCNQ2, dose response (AID 588637). The format is functional.
Test [16] addresses FAD-linked sulfhydryl oxidase ALR (Homo sapiens, UniProt P55789). Nature of the test: ALR-catalysed DTT oxidation blockers – biochemical, H2O2 detection, luminescence, cherry-pick, dose response (AID 493248).
The target in test [17] is ATP-binding cassette sub-family B member 6 (Homo sapiens, UniProt Q9NP58). Nature of the test: concentration-dependent ABCB6 porphyrin transport blockade – K562-ABCB6 cells, flow cytometry, cherry pick 1, dose response (AID 623955). The format is functional. As to conditions: read-out: EC50_MICROM.
For test [18], the target named is Photoreceptor-specific nuclear receptor (Homo sapiens, UniProt Q9Y5X4). The test is classed as functional, cell-based.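 Also: CHO-S cells with Gal4-NCOR and VP16-NR2E3 two-hybrid luciferase reporter.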
The target of another test is Protein S100-A4 (Homo sapiens, UniProt P26447). Nature of the test: human S100A4 peptide interaction inhibition curves – biochemical, fluorescence polarization, cherry-picked hits, dose response (AID 687001). The format is functional.
The target of test [19] is Hepatocyte nuclear factor 4-alpha (Homo sapiens, UniProt P41235). The test is classed as functional, cell-based.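 Also: biochemical luminescence-based dose-response counterscreen measuring inhibition of HNF4 dimerization, run alongside a screen for blockers of ABHD5–perilipin-5 interaction; split luciferase complementation of HNF4 fusion proteins in cell lysate measuring dimerization.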
Test [20] addresses Tyrosine-protein phosphatase non-receptor type 11 (Homo sapiens, UniProt Q06124). Nature of the test: PTPN11 enzyme inhibitors – biochemical, selectivity assay for STEP inhibitor project, dose response (AID 602367). The format is functional. The note with it: read-out: IC50_Mean.
In test [21] the target is Tyrosine-protein phosphatase non-receptor type 5 (Homo sapiens, UniProt P54829). Put plainly: PTPN5 enzyme inhibition – biochemical, fluorescence intensity, uHTS hits, confirmation (AID 602372). The format is functional. As to conditions: read-out: IC50_Mean.
The target of test [22] is Dual specificity protein phosphatase 3 (Homo sapiens, UniProt P51452). Nature of the test: VHR phosphatase inhibition, dose response, selectivity assay for STEP inhibitor project, biochemical (AID 602374). As to conditions: read-out: IC50_Mean. The format is functional.
The target in test [23] is T6, Sentrin-specific protease 8 (Homo sapiens, UniProt Q96LD8).
T6 sequence (Q96LD8 whole entry): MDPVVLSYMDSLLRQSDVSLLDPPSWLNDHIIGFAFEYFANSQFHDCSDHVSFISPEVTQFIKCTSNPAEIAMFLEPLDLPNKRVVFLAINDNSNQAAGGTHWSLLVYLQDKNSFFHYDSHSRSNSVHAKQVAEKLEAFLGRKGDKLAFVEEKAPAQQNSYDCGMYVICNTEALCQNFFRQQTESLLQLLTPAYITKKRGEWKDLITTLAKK
The test is classed as functional.

The target of test [24] is T6, Sentrin-specific protease 8. The test is classed as functional. This is another data set of the same source.

T4 sequence (Q79MP6 whole entry): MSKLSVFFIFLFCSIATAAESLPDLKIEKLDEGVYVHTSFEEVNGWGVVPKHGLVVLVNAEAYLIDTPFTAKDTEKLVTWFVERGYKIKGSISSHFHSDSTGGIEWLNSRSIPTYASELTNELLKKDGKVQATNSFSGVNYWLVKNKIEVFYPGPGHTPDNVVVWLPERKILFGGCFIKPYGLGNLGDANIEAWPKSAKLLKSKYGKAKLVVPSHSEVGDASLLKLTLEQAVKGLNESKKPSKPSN
T5 sequence (Q932Y6 whole entry): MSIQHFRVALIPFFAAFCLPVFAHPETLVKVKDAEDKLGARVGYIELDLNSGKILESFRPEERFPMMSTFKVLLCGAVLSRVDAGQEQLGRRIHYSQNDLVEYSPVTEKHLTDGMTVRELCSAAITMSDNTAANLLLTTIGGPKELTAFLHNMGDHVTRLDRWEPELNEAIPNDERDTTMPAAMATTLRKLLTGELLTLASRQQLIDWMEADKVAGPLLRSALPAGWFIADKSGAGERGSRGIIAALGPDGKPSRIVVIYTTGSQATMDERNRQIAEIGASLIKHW
Tyrosine-protein phosphatase non-receptor type 11, sequence (Q06124 whole entry): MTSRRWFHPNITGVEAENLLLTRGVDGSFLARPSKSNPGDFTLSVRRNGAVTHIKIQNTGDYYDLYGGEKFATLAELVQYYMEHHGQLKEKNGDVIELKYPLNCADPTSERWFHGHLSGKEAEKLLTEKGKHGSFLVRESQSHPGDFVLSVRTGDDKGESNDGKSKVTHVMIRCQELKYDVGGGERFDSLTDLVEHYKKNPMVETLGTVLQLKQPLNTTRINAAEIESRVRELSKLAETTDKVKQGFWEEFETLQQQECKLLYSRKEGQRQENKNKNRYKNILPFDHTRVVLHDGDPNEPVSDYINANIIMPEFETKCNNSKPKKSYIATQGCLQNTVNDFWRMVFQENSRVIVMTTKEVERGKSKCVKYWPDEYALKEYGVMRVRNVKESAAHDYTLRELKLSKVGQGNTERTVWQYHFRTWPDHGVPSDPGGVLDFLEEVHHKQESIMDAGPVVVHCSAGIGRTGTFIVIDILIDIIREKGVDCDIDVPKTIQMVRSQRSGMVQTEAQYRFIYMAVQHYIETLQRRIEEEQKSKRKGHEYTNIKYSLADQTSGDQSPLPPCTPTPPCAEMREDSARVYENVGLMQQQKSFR
Protein S100-A4, sequence (P26447 whole entry, the tested form may be a part): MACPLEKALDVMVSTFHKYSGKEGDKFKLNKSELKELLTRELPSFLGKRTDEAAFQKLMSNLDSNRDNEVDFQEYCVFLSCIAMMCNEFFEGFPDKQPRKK
Potassium voltage-gated channel subfamily KQT member 2, sequence (O88943 whole entry): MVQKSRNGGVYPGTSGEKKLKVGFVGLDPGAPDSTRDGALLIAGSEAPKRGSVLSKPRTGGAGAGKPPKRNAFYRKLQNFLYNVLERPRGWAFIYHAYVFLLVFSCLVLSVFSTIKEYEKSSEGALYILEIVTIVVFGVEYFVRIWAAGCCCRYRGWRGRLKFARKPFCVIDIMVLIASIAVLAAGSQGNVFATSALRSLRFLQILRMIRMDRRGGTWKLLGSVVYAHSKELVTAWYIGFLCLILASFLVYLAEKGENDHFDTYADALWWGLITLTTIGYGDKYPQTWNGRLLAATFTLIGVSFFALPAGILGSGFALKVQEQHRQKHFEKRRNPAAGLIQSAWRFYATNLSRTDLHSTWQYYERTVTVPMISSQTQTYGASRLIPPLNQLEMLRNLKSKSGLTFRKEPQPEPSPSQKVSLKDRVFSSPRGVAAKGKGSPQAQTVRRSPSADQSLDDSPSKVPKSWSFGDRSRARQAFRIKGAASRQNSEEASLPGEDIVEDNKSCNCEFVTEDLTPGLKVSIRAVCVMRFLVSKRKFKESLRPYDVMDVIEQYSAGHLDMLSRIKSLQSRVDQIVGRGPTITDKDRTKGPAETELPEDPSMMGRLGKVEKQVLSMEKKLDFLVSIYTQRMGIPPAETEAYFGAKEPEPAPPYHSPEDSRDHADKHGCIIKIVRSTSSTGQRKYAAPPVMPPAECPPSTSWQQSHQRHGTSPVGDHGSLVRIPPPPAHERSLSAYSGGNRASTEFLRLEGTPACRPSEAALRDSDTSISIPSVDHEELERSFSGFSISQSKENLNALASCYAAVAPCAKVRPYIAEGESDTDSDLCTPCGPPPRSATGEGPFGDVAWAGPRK
FAD-linked sulfhydryl oxidase ALR, sequence (P55789 whole entry): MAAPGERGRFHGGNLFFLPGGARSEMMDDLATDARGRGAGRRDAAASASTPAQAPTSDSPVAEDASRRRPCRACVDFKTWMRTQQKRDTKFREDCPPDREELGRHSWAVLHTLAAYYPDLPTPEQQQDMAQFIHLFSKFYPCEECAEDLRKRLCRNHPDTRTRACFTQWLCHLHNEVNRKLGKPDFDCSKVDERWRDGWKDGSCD
DNA dC->dU-editing enzyme APOBEC-3G, sequence (Q9HC16 whole entry): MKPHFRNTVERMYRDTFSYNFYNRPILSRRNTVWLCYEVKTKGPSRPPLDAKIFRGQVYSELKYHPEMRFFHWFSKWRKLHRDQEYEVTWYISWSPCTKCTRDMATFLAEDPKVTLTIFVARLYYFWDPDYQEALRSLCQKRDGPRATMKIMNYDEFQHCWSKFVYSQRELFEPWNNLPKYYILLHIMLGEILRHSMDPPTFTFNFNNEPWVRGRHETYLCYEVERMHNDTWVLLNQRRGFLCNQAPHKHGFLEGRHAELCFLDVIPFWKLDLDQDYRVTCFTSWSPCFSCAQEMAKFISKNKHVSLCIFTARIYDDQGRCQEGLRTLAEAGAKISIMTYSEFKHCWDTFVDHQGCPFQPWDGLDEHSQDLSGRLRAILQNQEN
Dual specificity protein phosphatase 3, sequence (P51452 whole entry): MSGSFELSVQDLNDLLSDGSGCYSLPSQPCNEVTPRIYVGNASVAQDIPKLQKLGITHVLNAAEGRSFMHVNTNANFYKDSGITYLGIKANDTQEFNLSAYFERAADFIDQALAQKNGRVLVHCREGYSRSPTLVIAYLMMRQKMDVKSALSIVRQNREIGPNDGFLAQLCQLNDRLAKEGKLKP
Beta-lactamase (Salmonella choleraesuis (strain SC-B67), UniProt Q5J463), sequence (Q5J463 whole entry): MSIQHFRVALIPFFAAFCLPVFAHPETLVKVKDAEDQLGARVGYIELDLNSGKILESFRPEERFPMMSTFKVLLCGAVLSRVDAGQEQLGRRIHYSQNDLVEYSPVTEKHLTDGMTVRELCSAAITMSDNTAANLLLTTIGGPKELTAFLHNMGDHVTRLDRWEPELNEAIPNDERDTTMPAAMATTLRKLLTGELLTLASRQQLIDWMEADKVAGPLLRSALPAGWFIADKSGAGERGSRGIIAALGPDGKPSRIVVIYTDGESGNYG
DNA dC->dU-editing enzyme APOBEC-3A, sequence (P31941 whole entry): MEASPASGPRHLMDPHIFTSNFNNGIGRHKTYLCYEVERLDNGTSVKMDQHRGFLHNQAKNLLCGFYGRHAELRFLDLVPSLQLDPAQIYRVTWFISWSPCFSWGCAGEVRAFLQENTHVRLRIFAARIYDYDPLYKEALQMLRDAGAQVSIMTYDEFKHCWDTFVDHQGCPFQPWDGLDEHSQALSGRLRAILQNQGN
Hepatocyte nuclear factor 4-alpha, sequence (P41235 whole entry, the tested form may be a part): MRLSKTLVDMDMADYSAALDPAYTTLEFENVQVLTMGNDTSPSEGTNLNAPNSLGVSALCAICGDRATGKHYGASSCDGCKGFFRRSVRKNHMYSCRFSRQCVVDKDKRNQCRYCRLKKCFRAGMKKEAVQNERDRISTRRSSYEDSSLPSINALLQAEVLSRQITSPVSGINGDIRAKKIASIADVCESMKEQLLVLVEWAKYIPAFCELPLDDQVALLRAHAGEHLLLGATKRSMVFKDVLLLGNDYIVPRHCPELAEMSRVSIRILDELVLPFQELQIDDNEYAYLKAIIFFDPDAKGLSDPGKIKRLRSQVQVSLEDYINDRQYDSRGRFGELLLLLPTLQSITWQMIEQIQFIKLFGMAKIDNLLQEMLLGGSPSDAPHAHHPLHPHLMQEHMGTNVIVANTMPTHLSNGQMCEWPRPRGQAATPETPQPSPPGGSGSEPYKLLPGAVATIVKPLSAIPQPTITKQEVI
Tyrosine-protein phosphatase non-receptor type 5, sequence (P54829 whole entry): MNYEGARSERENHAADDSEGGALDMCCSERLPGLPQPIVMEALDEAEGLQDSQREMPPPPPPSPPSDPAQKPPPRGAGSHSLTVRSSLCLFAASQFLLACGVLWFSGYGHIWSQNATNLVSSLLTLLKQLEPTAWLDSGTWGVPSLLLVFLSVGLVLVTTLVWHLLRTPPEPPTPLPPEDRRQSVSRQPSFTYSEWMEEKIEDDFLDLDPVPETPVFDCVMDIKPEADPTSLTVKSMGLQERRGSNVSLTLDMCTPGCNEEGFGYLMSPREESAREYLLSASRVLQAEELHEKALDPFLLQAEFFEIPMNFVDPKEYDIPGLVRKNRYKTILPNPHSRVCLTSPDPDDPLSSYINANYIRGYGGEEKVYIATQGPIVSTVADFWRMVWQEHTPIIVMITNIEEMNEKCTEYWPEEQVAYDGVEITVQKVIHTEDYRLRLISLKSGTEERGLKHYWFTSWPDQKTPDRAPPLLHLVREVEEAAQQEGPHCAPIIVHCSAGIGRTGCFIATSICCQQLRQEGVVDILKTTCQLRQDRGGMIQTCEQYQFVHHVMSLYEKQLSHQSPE
Photoreceptor-specific nuclear receptor, sequence (Q9Y5X4 whole entry, the tested form may be a part): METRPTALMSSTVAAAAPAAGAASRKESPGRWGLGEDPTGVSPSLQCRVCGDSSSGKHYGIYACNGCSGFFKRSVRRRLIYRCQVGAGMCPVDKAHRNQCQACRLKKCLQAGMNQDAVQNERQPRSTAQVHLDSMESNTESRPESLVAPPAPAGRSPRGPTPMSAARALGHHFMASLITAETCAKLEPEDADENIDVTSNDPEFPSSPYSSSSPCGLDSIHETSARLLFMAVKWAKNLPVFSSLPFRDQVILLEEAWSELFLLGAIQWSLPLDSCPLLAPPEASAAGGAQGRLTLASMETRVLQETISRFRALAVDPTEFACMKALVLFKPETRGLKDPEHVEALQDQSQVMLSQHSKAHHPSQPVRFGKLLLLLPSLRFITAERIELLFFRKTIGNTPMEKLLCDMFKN

Regarding `O=c1oc(-c2ccccc2)cc(Cl)c1Cl`, the EC50 was > 120 µM (not active) in test [1], > 120 µM (not active) in test [2], > 60 µM (not active) with H4 and 4.74 µM (active) at Protein RecA. Further, the AC50 was 10.5 µM (active) in [3], 2.64 µM (active) in [4] and 11.2 µM (active) in [6]. In test [5], the IC50 is 1.15 µM (active).
For `COc1ccccc1NS(=O)(=O)c1cc(NC(=O)c2ccc(NC(C)=O)cc2)ccc1N1CCOCC1`, the IC50 (in “cells”; in test [7]) was > 67.5 µM (inactive) in each case.
Turning to `CC(=C/c1ccccc1)/C=N/n1c(S)nnc1-c1ccncc1`, the IC50 on Beta-lactamase [8] was > 59.6 µM (inactive); on Beta-lactamase [9], > 59.6 µM (inactive); at Beta Lactamase [10], > 59.6 µM (inactive); on Beta-lactamase [11] it was > 59.6 µM (inactive); on Beta Lactamase [12], 3.26 µM (active); in test [13], > 100 µM (inactive). In addition, the IC50 in [14] is 2.33 µM (active). Also, in the test on HEK293, the AC50 is 5.9 µM (active).
Turning to `COc1ccc(C)cc1N(CC(=O)Nc1ccc(S(=O)(=O)N2CCOCC2)cc1)S(C)(=O)=O`, the AC50 in the test on Vero is 29.5 µM (active).
`CCc1nc2ccc(F)cc2c(C(=O)NC2CCCCC2C)c1C` (configuration not stated): the IC50 in test [15] was 0.636 µM (active).
With `Cc1cccc(CS(=O)(=O)c2ncc(Cl)c(C(=O)Nc3c(C)cccc3C)n2)c1`, the values for the AC50 in test [16] and in test [3] were 0.164 µM (active) and 4.28 µM (active), respectively. Moreover, the EC50 was 4.66 µM (active) on Protein RecA and 74.5 µM (active) in test [17].
For the molecule `CCOC(=O)N1CCN(C(=O)c2ccc(S(=O)(=O)Nc3ccc(C)cc3)cc2)CC1`, in [18], the IC50 is 5.96 µM (active).
As for `Cc1cc(C)c(S(=O)(=O)NCc2ccc3c(c2)cc(C)n3C)c(C)c1`, the AC50 on Protein S100-A4 was 10.7 µM (active).
`CC(C)(C)NC(=O)C(c1ccc(-c2ccccc2)cc1)n1c(=O)c(-c2ccco2)nc2ccccc21` (configuration not stated): the IC50 in test [19] was 1.91 µM (active).
`O=C(NC1CCCCCC1)C(=S)NC1CCCCC1`: the values for the IC50 in test [20], in test [21] and in test [22] were 9.88 µM (active), 56.9 µM (inactive) and 3.07 µM (active), respectively.
For `COC(=O)CCCC1=CC2=CC(=O)C(C)(OC(=O)c3cccs3)C(=O)C2=CN1C1CCCC1` (configuration not stated), the IC50 in test [23] was 7.97 µM (active); in [24] it was 5.99 µM (active).

These data come from ChEMBL document CHEMBL1201862, “PubChem BioAssay data set” (2004).
